Source: US8247211B2, “Glycopeptide antibiotics” (American Cyanamid Company, priority 2001, dated 2012)
≈ marks a conversion by molar mass, not a printed value.

Tests used:
Streptococcus sp. = experiment: In vitro antibacterial evaluation: minimum inhibitory concentration (MIC), broth dilution method; format: cell-based; conditions: broth dilution, 18 hours at 35° C.
Method: (§1) The minimum inhibitory concentration (MIC), the lowest concentration of the antibiotic which inhibits growth of the test organism, is determined by the broth dilution method using Muller-Hinton II […] (Baltimore Biological Laboratories) following the recommendations of the National Committee for Clinical Laboratory Standards [Methods for dilution antimicrobial susceptibility tests for bacteria that grow aerobically, approved standard M7-A2, National Committee for Clinical Laboratory Standards, Villanova, Pa].
(§2) An inoculum level of 5×10^5 CFU/mL, and a range of antibiotic concentrations (64-0.06 μg/mL) is used. […] The test organisms include a spectrum of Gram-positive bacteria comprised of Staphylococcus sp., Streptococcus sp. and Enterococcus sp. These organisms include recent clinical isolates that are resistant to methicillin, penicillin and/or vancomycin.

Enterococcus sp. = experiment: as above; format: cell-based; conditions: broth dilution, 18 hours at 35° C.
Method: as §1, §2

[1] = Streptococcus pneumoniae (GC 4565)
[2] = Streptococcus pneumoniae (GC 1894)

MIC Streptococcus pneumoniae (GC 4565) (Streptococcus sp.; [1]) [µg/mL] | MIC Streptococcus pneumoniae (GC 4565) (Streptococcus sp.) [µg/mL] | MIC Streptococcus pneumoniae (GC 1894) (Streptococcus sp.; [2]) [µg/mL] | MIC Streptococcus pneumoniae (GC 1894) (Streptococcus sp.) [µg/mL] | MIC Enterococcus faecium (GC 4557) (Enterococcus sp.; Enterococcus faecium (GC 4557)) [µg/mL] | MIC Enterococcus faecium (GC 4557) (Enterococcus sp.) [µg/mL] | MIC Streptococcus agalactiae (GC 4564) (Streptococcus sp.; Streptococcus agalactiae (GC 4564)) [µg/mL] | MIC Streptococcus pneumoniae (ATCC 6301) (Streptococcus sp.; Streptococcus pneumoniae (ATCC 6301)) [µg/mL] | MIC Streptococcus pyogenes (GC 4563) (Streptococcus sp.; Streptococcus pyogenes (GC 4563)) [µg/mL] | MIC Streptococcus agalactiae (GC 4564) (Streptococcus sp.) [µg/mL] | MIC Streptococcus pneumoniae (ATCC 6301) (Streptococcus sp.) [µg/mL] | MIC Streptococcus pyogenes (GC 4563) (Streptococcus sp.) [µg/mL] | Structure (SMILES)
64 (≈ 61.4 µM) | 64 (≈ 61.4 µM) |  |  |  |  |  |  |  |  |  |  | CCC(=O)Nc1cc(CC2NC(=O)C(C(C)c3ccccc3)NC(=O)CNC(=O)C(CO)NC(=O)C(C(O)C3CNC(=N)N3C3OC(CO)C(O)C(O)C3O)NC(=O)C(C(O)C3CNC(=N)N3)NC2=O)ccc1O (stereo not drawn) [Example 14, Cyclo[glycyl-β-methylphenylalanyl-3-(propanamido)tyrosyl-3-(2-iminoimidazolidin-4-yl)seryl-3-(3-hexopyranosyl-2-iminoimidazolidin-4-yl)serylseryl]]
64 (≈ 60.6 µM) | 64 (≈ 60.6 µM) |  |  |  |  |  |  |  |  |  |  | CC(C)C(=O)Nc1cc(CC2NC(=O)C(C(C)c3ccccc3)NC(=O)CNC(=O)C(CO)NC(=O)C(C(O)C3CNC(=N)N3C3OC(CO)C(O)C(O)C3O)NC(=O)C(C(O)C3CNC(=N)N3)NC2=O)ccc1O (stereo not drawn) [Example 15, Cyclo[glycyl-β-methylphenylalanyl-3-(2-methylpropanamido)tyrosyl-3-(2-iminoimidazolidin-4-yl)seryl-3-(3-hexopyranosyl-2-iminoimidazolidin-4-yl)serylseryl]]
 |  | 64 (≈ 57.1 µM) | 64 (≈ 57.1 µM) |  |  |  |  |  |  |  |  | Cc1ccc(OC(=O)Nc2cc(CC3NC(=O)C(C(C)c4ccccc4)NC(=O)CNC(=O)C(CO)NC(=O)C(C(O)C4CNC(=N)N4C4OC(CO)C(O)C(O)C4O)NC(=O)C(C(O)C4CNC(=N)N4)NC3=O)ccc2O)cc1 (stereo not drawn) [Example 19, Cyclo[glycyl-β-methylphenylalanyl-3-[[(4-methylphenoxy)carbonyl]amino]tyrosyl-3-(2-iminoimidazolidin-4-yl)seryl-3-(3-hexopyranosyl-2-iminoimidazolidin-4-yl)serylseryl]]
8 (≈ 7.91 µM) | 8 (≈ 7.91 µM) | 8 (≈ 7.91 µM) | 8 (≈ 7.91 µM) | 64 (≈ 63.2 µM) | 64 (≈ 63.2 µM) | 32 (≈ 31.6 µM) | 8 (≈ 7.91 µM) | 32 (≈ 31.6 µM) | 32 (≈ 31.6 µM) | 8 (≈ 7.91 µM) | 32 (≈ 31.6 µM) | CC(c1ccccc1)C1NC(=O)CNC(=O)C(CO)NC(=O)C(C(O)C2CNC(=N)N2C2OC(CO)C(O)C(O)C2O)NC(=O)C(C(O)C2CNC(=N)N2)NC(=O)C(Cc2ccc3oc(=O)[nH]c3c2)NC1=O (stereo not drawn) [Example 22, Cyclo[3-(2,3-dihydro-2-oxo-1,3-benzoxazol-5-yl)alanyl-3-(2-iminoimidazolidin-4-yl)seryl-3-(3-hexopyranosyl-2-iminoimidazolidin-4-yl)serylserylglycyl-β-methylphenylalanyl]]
